Source: US8586747B2, “3,3-dimethyl tetrahydroquinoline derivatives” (Hoffmann-La Roche Inc., priority 2010, dated 2013)

The compounds below were run on AMP-activated protein kinase (AMPK) (assay: ADP Quest assay for AMPK activators). Details: fold of AMPK activation to phosphorylate SAMS peptide without and with an activator at the concentration of 30 µM.
Format: biochemical
Design: key: fold AMPK activation with vs without activator at 30 µM
How it was run: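 E30, the fold increase in SAMS peptide phosphorylation at 30 µM compound relative to no activator, is derived from kinetic fluorescent detection of ADP (ex 530, em 590 nm). AMPK starts the ATP-containing reaction at room temperature; compounds span […] by 2-fold steps, AMP serves as reference.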

| SMILES | E30 |
| --- | --- |
| CC(C)(C)c1ccc(-c2cncc(C3Nc4ccc(C(=O)O)cc4CC3(C)C)c2)cc1 (stereo not drawn) [Example 46, 2-[5-(4-tert-Butyl-phenyl)-pyridin-3-yl]-3,3-dimethyl-1,2,3,4-tetrahydro-quinoline-6-carboxylic acid] | 1.46 |
| CN1CCN(c2cccc(C3Nc4ccc(C(=O)O)cc4CC3(C)C)c2)C(=O)C1=O (stereo not drawn) [Example 126, 3,3-Dimethyl-2-[3-(4-methyl-2,3-dioxo-piperazin-1-yl)-phenyl]-1,2,3,4-tetrahydro-quinoline-6-carboxylic acid] | 1.28 |
| CCc1nnnn1-c1cccc(C2Nc3ccc(C(=O)NS(C)(=O)=O)cc3CC2(C)C)c1 (stereo not drawn) [Example 146, N-{2-[3-(5-Ethyl-tetrazol-1-yl)-phenyl]-3,3-dimethyl-1,2,3,4-tetrahydro-quinoline-6-carbonyl}-methanesulfonamide] | 1.21 |
| CC1(C)Cc2cc(C(=O)O)ccc2NC1c1ccc(NC(=O)c2ccc(F)cc2)cc1 (stereo not drawn) [Example 182, 2-(4-(4-Fluorobenzamido)phenyl)-3,3-dimethyl-1,2,3,4-tetrahydroquinoline-6-carboxylic acid] | 1.26 |
| CC1(C)Cc2cc(C(=O)O)ccc2NC1c1ccc(F)c(NC(=O)c2ccccn2)c1 (stereo not drawn) [Example 180, 2-(4-Fluoro-3-(picolinamido)-phenyl)-3,3-dimethyl-1,2,3,4-tetrahydroquinoline-6-carboxylic acid] | 1.32 |
| CC(C)(Nc1ccccc1C1Nc2ccc(C(=O)O)cc2CC1(C)C)C(=O)O (stereo not drawn) [Example 163, 2-[2-(1-Carboxy-1-methyl-ethylamino)-phenyl]-3,3-dimethyl-1,2,3,4-tetrahydro-quinoline-6-carboxylic acid] | 3.68 |
| CC1(C)Cc2cc(C(=O)O)ccc2NC1c1cccc(NC(=O)c2ccccn2)c1 (stereo not drawn) [Example 4, 3,3-Dimethyl-2-{3-[(pyridine-2-carbonyl)-amino]-phenyl}-1,2,3,4-tetrahydro-quinoline-6-carboxylic acid] | 1.33 |
| CC1(C)Cc2cc(C(=O)NS(C)(=O)=O)ccc2NC1c1cc(F)cc(N2CCCC2)c1 (stereo not drawn) [Example 61, N-[2-(3-Fluoro-5-pyrrolidin-1-yl-phenyl)-3,3-dimethyl-1,2,3,4-tetrahydro-quinoline-6-carbonyl]-methanesulfonamide] | 1.61 |
| CCc1nnnn1-c1cccc(C2Nc3ccc(C(=O)NS(=O)(=O)C4CC4)cc3CC2(C)C)c1 (stereo not drawn) [Example 145, Cyclopropanesulfonic acid {2-[3-(5-ethyl-tetrazol-1-yl)-phenyl]-3,3-dimethyl-1,2,3,4-tetrahydro-quinoline-6-carbonyl}-amide] | 1.22 |
| CC(C)(CO)Nc1cccc(C2Nc3ccc(C(=O)O)cc3CC2(C)C)c1 (stereo not drawn) [Example 29, 2-[3-(2-Hydroxy-1,1-dimethyl-ethylamino)-phenyl]-3,3-dimethyl-1,2,3,4-tetrahydro-quinoline-6-carboxylic acid] | 1.34 |
| CC1(C)Cc2cc(C(=O)O)ccc2NC1c1cccc(C(=O)NS(C)(=O)=O)c1 (stereo not drawn) [Example 179, 3,3-Dimethyl-2-(3-(methylsulfonylcarbamoyl)-phenyl)-1,2,3,4-tetrahydroquinoline-6-carboxylic acid] | 1.33 |
| COc1cc(C2Nc3ccc(C(=O)NS(=O)(=O)C4CC4)cc3CC2(C)C)cc(N2CCOCC2)c1 (stereo not drawn) [Example 67, Cyclopropanesulfonic acid [2-(3-methoxy-5-morpholin-4-yl-phenyl)-3,3-dimethyl-1,2,3,4-tetrahydro-quinoline-6-carbonyl]-amide] | 1.38 |
| CC1(C)Cc2cc(C(=O)O)ccc2NC1c1ccc(NC(=O)Cc2ccccc2)cc1 (stereo not drawn) [Example 193, 3,3-Dimethyl-2-(4-(2-phenylacetamido)phenyl)-1,2,3,4-tetrahydroquinoline-6-carboxylic acid] | 1.26 |
| CC(C)NC(=O)c1ccc(-c2cccc(C3Nc4ccc(C(=O)O)cc4CC3(C)C)c2)cc1 (stereo not drawn) [Example 159, 2-(4′-Isopropylcarbamoyl-biphenyl-3-yl)-3,3-dimethyl-1,2,3,4-tetrahydro-quinoline-6-carboxylic acid] | 1.31 |
| CCN(CC)C(=O)Nc1cccc(C2Nc3ccc(C(=O)O)cc3CC2(C)C)c1 (stereo not drawn) [Example 36, 2-[3-(3,3-Diethyl-ureido)-phenyl}-3,3-dimethyl-1,2,3,4-tetrahydro-quinoline-6-carboxylic acid] | 1.37 |
